Reference: patent publication US20120294879A1, “CONSENSUS SEQUENCE FOR INFLUENZA A VIRUS” (priority 2009, published 2012)

What was measured:
[1] = molecular target: HLA-DR4 (HLA-DRA*0101 and -DRB1*0401), as expressed in HLA-DR4 transgenic mice (human); assay: cell-based or functional assay
[2] = system: splenocytes of HLA-A24 (A*2402) transgenic mice; type: cell-based; parameters: key to A24: average IFN-γ spots forming cells per million splenocytes: — represents no positive ELISpot response
[3] = system: splenocytes of HLA-B7 (B*0702) transgenic mice; type: cell-based; parameters: key to B7: average IFN-γ spots forming cells per million splenocytes: — represents no positive ELISpot response
[4] = system: splenocytes of HLA-DR2 (DRB1*1501) transgenic mice; type: cell-based; parameters: key to DR2: average IFN-γ spots forming cells per million splenocytes: — represents no positive ELISpot response
[5] = system: splenocytes of HLA-DR3 (DRB1*0301) transgenic mice; type: cell-based; parameters: key to DR3: average IFN-γ spots forming cells per million splenocytes: — represents no positive ELISpot response
[6] = system: splenocytes of HLA-DR4 (DRB1*0401) transgenic mice; type: cell-based; parameters: key: — represents no positive ELISpot response

Substance	IFN-γ ELISpot at 10 µg/ml peptide, splenocytes of immunized HLA transgenic mice [1]	lowest concentration of peptide giving positive ELISpot response [1] [µg/mL]	A24: average IFN-γ spots forming cells per million splenocytes [2]	B7: average IFN-γ spots forming cells per million splenocytes [3]	DR2: average IFN-γ spots forming cells per million splenocytes [4]	DR3: average IFN-γ spots forming cells per million splenocytes [5]	DR4: average IFN-γ spots forming cells per million splenocytes [6]	A24: lowest concentration of peptide giving positive ELISpot response in peptide titration [2]	B7: lowest concentration of peptide giving positive ELISpot response in peptide titration [3]	DR2: lowest concentration of peptide giving positive ELISpot response in peptide titration [4]	DR3: lowest concentration of peptide giving positive ELISpot response in peptide titration [5]
M1 175-191 peptide of influenza virus A/New York/348/2003 (H1N1)	165	0.1									
M1 181-197 peptide of influenza virus A/New York/348/2003 (H1N1)	115	1									
MGMIGILPDMTPSTEMS			—	—	—	—	238 ± 5(0.1) IFN-γ spots forming cells per million splenocytes				
MWEINGPESVLINTYQW			289 ± 16 IFN-γ spots forming cells per million splenocytes	—	—	—	—	(0.1) μg/ml			
NDLGPATAQMALQLFIK			92 ± 2(1) IFN-γ spots forming cells per million splenocytes	—	—	—	—	92 ± 2(1) μg/ml			
NP 7-23 peptide of influenza virus A/New York/348/2003 (H1N1)	52	0.1									
NP 73-89 peptide of influenza virus A/New York/348/2003 (H1N1)	121	0.1									
NPSLRMKWMMAMKYPIT			—	—	—	—	166 ± 3(0.1) IFN-γ spots forming cells per million splenocytes				
PA 126-142 peptide of influenza virus A/New York/348/2003 (H1N1)	37	0.1									
PA 132-148 peptide of influenza virus A/New York/348/2003 (H1N1)	41	0.1									
PA 558-574 peptide of influenza virus A/New York/348/2003 (H1N1)	114	0.1									
PB1 31-47 peptide of influenza virus A/New York/348/2003 (H1N1)	106	0.1									
PB1 37-53 peptide of influenza virus A/New York/348/2003 (H1N1)	125	0.1									
PESVLINTYQWIIRNWE			226 ± 5 IFN-γ spots forming cells per million splenocytes	—	—	—	—	(0.1) μg/ml			
PVHFRNQVKIRRRVDIN			—	—	—	—	311 ± 37(0.1) IFN-γ spots forming cells per million splenocytes				
RATAILRKATRRLIQLI			—	—	—	—	54 ± 2(0.1) IFN-γ spots forming cells per million splenocytes				
RFLRVRDQRGNVLLSPE			—	184 ± 3 IFN-γ spots forming cells per million splenocytes	—	—	—		(0.1) μg/ml		
RFYRTCKLLGINMSKKK			—	—	231 ± 73(1) IFN-γ spots forming cells per million splenocytes	—	—			231 ± 73(1) μg/ml	
RMIGGIGRFYIQMCTEL			45 ± 5 IFN-γ spots forming cells per million splenocytes	—	—	—	—	(0.1) μg/ml			
RMQFSSLTVNVRGSGMR			—	—	104 ± 16(0.1) IFN-γ spots forming cells per million splenocytes	—	—			104 ± 16(0.1) μg/ml	
RQTYDWTLNRNQPAATA			—	—	—	78 ± 0(0.1) IFN-γ spots forming cells per million splenocytes	—				78 ± 0(0.1) μg/ml
SHGTGTGYTMDTVNRTH			—	—	—	—	106 ± 1(0.1) IFN-γ spots forming cells per million splenocytes				
SRPMFLYVRTNGTSKIK			—	—	—	—	114 ± 24(0.1) IFN-γ spots forming cells per million splenocytes				
TEKLTITYSSSMMWEIN			—	—	151 ± 67(0.1) IFN-γ spots forming cells per million splenocytes	—	—			151 ± 67(0.1) μg/ml	
